Converted amounts (≈) assume the structure as drawn.
Columns and labels:
[1] = molecular target: T1, Kallikrein-5 (Homo sapiens, UniProt Q9Y337); experiment: Inhibition of recombinant 6His-Q-FLAG tagged human KLK5 expressed in baculovirus infected Sf9 insect cells using (Tos-Gly-Pro-Arg)2[R110].2TFA as substrate measured at 30 secs interval for 5 mins by fluorescence intensity assay
T1 sequence (Q9Y337 whole entry): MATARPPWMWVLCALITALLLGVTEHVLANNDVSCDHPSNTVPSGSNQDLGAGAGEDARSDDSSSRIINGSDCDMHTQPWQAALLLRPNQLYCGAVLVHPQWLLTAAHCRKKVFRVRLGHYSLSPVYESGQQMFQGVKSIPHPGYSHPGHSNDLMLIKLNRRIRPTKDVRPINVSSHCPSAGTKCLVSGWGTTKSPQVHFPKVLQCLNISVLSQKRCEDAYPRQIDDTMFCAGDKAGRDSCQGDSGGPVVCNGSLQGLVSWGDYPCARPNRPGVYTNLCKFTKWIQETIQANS

[2] = molecular target: Kallikrein-1 (Homo sapiens, UniProt P06870); experiment: Inhibition of recombinant bovine enterokinase activated N-terminal His-tagged recombinant human KLK1 (19 to 262 residues) expressed in baculovirus infected Sf9 insect cells using 3',6'-bis(prolylphenylalanylarginylamino)3H-spiro(2-benzofuran-1,9'-xanthen)-3-one;TFA as substrate measured at 30 secs interval for 5 mins by fluorescence intensity assay
Chain of Kallikrein-1 (P06870 whole entry, the tested form may be a part): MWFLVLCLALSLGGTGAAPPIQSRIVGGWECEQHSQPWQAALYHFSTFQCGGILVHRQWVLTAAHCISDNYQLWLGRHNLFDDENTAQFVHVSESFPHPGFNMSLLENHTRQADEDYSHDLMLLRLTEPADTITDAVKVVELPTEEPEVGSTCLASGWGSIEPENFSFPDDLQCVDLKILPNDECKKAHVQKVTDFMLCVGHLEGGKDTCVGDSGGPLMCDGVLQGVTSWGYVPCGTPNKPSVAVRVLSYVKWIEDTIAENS

[3] = species on record: Homo sapiens; experiment: Selectivity index, ratio of compound effect for inhibition of recombinant bovine enterokinase activated N-terminal His-tagged recombinant human KLK1 (19 to 262 residues) expressed in baculovirus infected Sf9 insect cells to compound effect for inhibition of recombinant 6His-Q-FLAG tagged human KLK5 expressed in baculovirus infected insect Sf9 cells
[4] = Half life in pH 4 to 8 buffer at 0.05 mg/ml over 24 hrs; type: physicochemical
[5] = Half life in pH 6 buffer at 0.05 mg/ml under H2O2-induced oxidative condition over 24 hrs; type: physicochemical; conditions: buffer with H2O2, pH 6
[6] = Solubility of the compound in pH 6 Britton-Robinson buffer at 24 hrs; type: physicochemical; conditions: buffer, pH 6, 24 h
[7] = Solubility of the compound in water at 24 hrs; type: physicochemical
[8] = Half life in pH 8 buffer at 0.05 mg/ml under H2O2-induced oxidative condition over 24 hrs; type: physicochemical; conditions: buffer with H2O2, pH 8
[9] = Solubility of the compound in pH 4 Britton-Robinson buffer at 24 hrs; type: physicochemical; conditions: buffer, pH 4, 24 h
[10] = Absorption property in methanol assessed as maximum absorption wavelength by UV-spectra analysis; type: physicochemical
[11] = Absorption property in methanol assessed as molar extinction co-efficient by UV-spectra analysis; type: physicochemical

| Structure (SMILES) | IC50 ([1]; read-out: pIC50 (converted)) [µM] | IC50 [2] [µM] | further results |
| --- | --- | --- | --- |
| N=C(N)c1ccc(NCc2nc3cc(Cl)ccc3[nH]2)cc1 | 10 | 2 |  |
| N=C(N)c1ccc(NCc2nc(-c3ccccc3)c[nH]2)cc1OCC1CC1 | 0.794 | 50.1 | Selectivity Index [3]: 60 |
| N=C(N)c1ccc(NCc2nc(-c3ccccc3)c[nH]2)cc1OCc1ccccc1Cl | 0.0316 | > 2.51 |  |
| N=C(N)c1ccc(NCc2nc3ccccc3[nH]2)cc1 | 20 | 39.8 |  |
| Cn1ccnc1CNc1ccc(C(=N)N)cc1 | 126 | 398 |  |
| N=C(N)c1ccc(NCc2nc(-c3ccccc3)c[nH]2)cc1OCCO | 3.98 | 79.4 |  |
| CNC(=O)COc1cc(NCc2nc(-c3ccccc3)c[nH]2)ccc1C(=N)N | 0.251 | 31.6 |  |
| N=C(N)c1ccc(NCc2nc(-c3ccccc3)c[nH]2)cc1OCc1ncco1 | 0.1 | 12.6 |  |
| CCOc1cc(NCc2nc(-c3ccccc3)c[nH]2)ccc1C(=N)N | 0.316 | 6.31 | Selectivity Index [3]: 20 |
| CN(C)CCOc1cc(NCc2nc(-c3ccccc3)c[nH]2)ccc1C(=N)N | 15.8 | 79.4 |  |
| N=C(N)c1ccc(NCc2nc(-c3ccccc3)c[nH]2)cc1OCCC1CC1 | 0.2 | 50.1 | Selectivity Index [3]: 250 |
| N=C(N)c1ccc(NCc2nc(-c3ccccc3)c[nH]2)cc1OCC(N)=O | 0.794 | > 50.1 |  |
| CC(C)COc1cc(NCc2nc(-c3ccccc3)c[nH]2)ccc1C(=N)N | 6.31 | 79.4 |  |

Now from value to compound, other results behind:

| IC50 ([1]; read-out: pIC50 (converted)) [µM] | IC50 [2] [µM] | Structure (SMILES) | further results |
| --- | --- | --- | --- |
| 0.0794 | 15.8 | N=C(N)c1ccc(NCc2nc(-c3ccccc3)c[nH]2)cc1OCC(=O)NC1CC1 |  |
| 0.0631 | > 5.01 | N=C(N)c1ccc(NCc2nc(-c3ccccc3)c[nH]2)cc1OCc1ccc(Cl)cc1 |  |
| 0.126 | 20 | N=C(N)c1ccc(NCc2nc(-c3ccccc3)c[nH]2)cc1OCc1ccccn1 |  |
| 15.8 | 6.31 | Cn1c(CNc2ccc(C(=N)N)cc2)nc2ccccc21 |  |
| 0.0794 | 25.1 | N=C(N)c1ccc(NCc2nc(-c3ccccc3)c[nH]2)cc1OCc1ccccc1 | IC50 ([1]; read-out: IC50): < 0.01 µM; Selectivity Index [3]: 300 |
| 6.31 | 25.1 | N=C(N)c1ccc(NCc2nc(-c3ccccc3)c[nH]2)cc1 |  |
| 0.0794 | > 5.01 | N=C(N)c1ccc(NCc2nc(-c3ccccc3)c[nH]2)cc1OCc1cccc(Cl)c1 |  |
| 0.0794 | 39.8 | N=C(N)c1ccc(NCc2nc(-c3ccccc3)c[nH]2)cc1OCc1ncccn1 |  |
| 0.0398 | > 6.31 | N=C(N)c1ccc(NCc2nc(-c3ccccc3)c[nH]2)cc1OCC(=O)NCC1CC1 | half-life at 0.05 mg/ml [4]: > 1000 h; half-life at 0.05 mg/ml [5]: 26.7 h; solubility [6]: Soluble; solubility at 24 h [7]: 3000 µg/mL (≈ 7.17 mM); half-life at 0.05 mg/ml [8]: 14 h; solubility [9]: Soluble; Activity [10]: > 290 nm; Activity [11]: > 1000 a.u.L/mol.cm |
| 25.1 | 63.1 | N=C(N)c1ccc(NCc2ncc[nH]2)cc1 |  |
| 10 | 6.31 | Cc1ccc2[nH]c(CNc3ccc(C(=N)N)cc3)nc2c1 |  |
| 12.6 | 31.6 | COc1ccc2[nH]c(CNc3ccc(C(=N)N)cc3)nc2c1 |  |

— ChEMBL document CHEMBL4387717, “Structure guided drug design to develop kallikrein 5 inhibitors to treat Netherton syndrome” (Bioorg Med Chem Lett, 2019)
